Where two headings read alike, the source gives them in different places.
How the values were obtained:
[1] = target: T1, human Cot catalytic domain (30-397 amino acids) (Homo sapiens, UniProt P41279); assay: High Throughput Cot Biochemical Assay (KinEASE TR-FRET); details: Cot KinEASE TR-FRET (HTRF) biochemical assay, 400 μM ATP; read-out: IC50 HTRF
T1 construct: Purified recombinant human Cot catalytic domain (30-397 amino acids) was purchased from Cama Biosciences; purchased Cama Biosciences (so in the source)
T1 sequence (P41279 30-397): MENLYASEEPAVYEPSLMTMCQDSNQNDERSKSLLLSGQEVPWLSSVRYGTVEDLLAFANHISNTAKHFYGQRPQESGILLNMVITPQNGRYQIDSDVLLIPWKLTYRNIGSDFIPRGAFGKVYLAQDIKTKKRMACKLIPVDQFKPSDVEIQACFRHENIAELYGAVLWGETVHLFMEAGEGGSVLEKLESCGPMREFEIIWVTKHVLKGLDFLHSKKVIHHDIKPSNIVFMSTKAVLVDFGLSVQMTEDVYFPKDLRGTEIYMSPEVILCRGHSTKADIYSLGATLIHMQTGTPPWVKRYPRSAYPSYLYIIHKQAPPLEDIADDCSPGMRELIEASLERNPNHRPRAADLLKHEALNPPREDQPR
Method in brief: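 TR-FRET readout: Eu-labeled phospho-specific antibody binds XL665-tagged STK3 peptide after phosphorylation by Cot (aa 30-397, 5 nM). Conditions: 400 μM ATP, 1 μM peptide, MOPS pH 7.0 buffer with MgOAc, DTT, BSA, NP-40, glycerol; 0.1% DMSO.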

[2] = tested on: TNFα production in LPS-stimulated human monocytes; assay: Cot Monocyte TNFα Cell Based Assay; details: Homo sapiens, Monocyte, read-out: EC50 TNF
Method in brief: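 TR-FRET read-out of total secreted TNFα, normalized as % control (unstimulated = 0%, LPS-stimulated = 100%). Cells (5,000/well) were exposed to compound 1 h at 37 °C, then to 50 pg/ml LPS for a further 4 h.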

[3] = TNFα in LPS-stimulated human monocytes

Compound | IC50 [1] [nM] | EC50 [2, 3] [nM] | EC50 [2] [nM]
[2H][C@](Nc1cc(C2CC2)c2ncc(C#N)c(NCC(C)(C)C)c2c1)(c1ccc(F)cc1)c1cn(C2CC2)nn1 [Example 232, (S)-8-cyclopropyl-6-(((1-cyclopropyl-1H-1,2,3-triazol-4-yl)(4-fluorophenyl)methyl-d)amino)-4-(neopentylamino)quinoline-3-carbonitrile] | 215 | 2440 | –
[2H][C@](Nc1cc(Cl)c2ncc(C#N)c(NCC(C)(C)C)c2c1)(c1cccc(C#N)c1)c1cn(C(C)(C)C)nn1 [Example 233, (S)-6-(((1-(tert-butyl)-1H-1,2,3-triazol-4-yl)(3-cyanophenyl)methyl-d)amino)-8-chloro-4-(neopentylamino)quinoline-3-carbonitrile] | 5 | 259 | –
[2H][C@](Nc1cc(Cl)c2ncc(C#N)c(N[C@H]3CCCC[C@@H]3CO)c2c1)(c1ccc(F)cc1)c1cn(C2CC2)nn1 [Example 234, 8-chloro-6-(((S)-(1-cyclopropyl-1H-1,2,3-triazol-4-yl)(4-fluorophenyl)methyl-d)amino)-4-(((1S,2S)-2-(hydroxymethyl)cyclohexyl)amino) quinoline-3-carbonitrile] | 523 | 5630 | –
[2H][C@](Nc1cc(Cl)c2ncc(C#N)c(N[C@@H]3CCCC[C@H]3CO)c2c1)(c1ccc(F)cc1)c1cn(C2CC2)nn1 [Example 235, 8-chloro-6-(((S)-(1-cyclopropyl-1H-1,2,3-triazol-4-yl)(4-fluorophenyl)methyl-d)amino)-4-(((1R,2R)-2-(hydroxymethyl)cyclohexyl)amino) quinoline-3-carbonitrile] | 605 | ≥ 10000 | –
[2H][C@](Nc1cc(Cl)c2ncc(C#N)c(N[C@H]3CCCC[C@@H]3O)c2c1)(c1ccc(F)cc1)c1cn(C2CC2)nn1 [Example 236, 8-chloro-6-(((S)-(1-cyclopropyl-1H-1,2,3-triazol-4-yl)(4-fluorophenyl)methyl-d)amino)-4-(((1S,2S)-2-hydroxycyclohexyl)amino) quinoline-3-carbonitrile] | 294 | 6630 | –
[2H][C@](Nc1cc(Cl)c2ncc(C#N)c(NCC[Si](C)(C)C)c2c1)(c1ccc(F)cc1)c1cn(C2CC2)nn1 [Example 237, (S)-8-chloro-6-(((1-cyclopropyl-1H-1,2,3-triazol-4-yl)(4-fluorophenyl)methyl-d)amino)-4-((2-(trimethylsilyl)ethyl)amino) quinoline-3-carbonitrile] | 231 | – | 5120
[2H][C@@](Nc1cc(Cl)c2ncc(C#N)c(NCC(C)(C)C)c2c1)(c1cn(C2CC2)nn1)c1ccccc1C(F)F [Example 238, (S)-8-chloro-6-(((1-cyclopropyl-1H-1,2,3-triazol-4-yl)(2-(difluoromethyl)phenyl)methyl-d)amino)-4-(neopentylamino)quinoline-3-carbonitrile] | 12 | 162 | –
[2H]C([2H])(Nc1c(C#N)cnc2c(Cl)cc(N[C@@]([2H])(c3cccc(C#N)c3)c3cn(C4CC4)nn3)cc12)C(C)(C)C [Example 239, (S)-8-chloro-6-(((3-cyanophenyl)(1-cyclopropyl-1H-1,2,3-triazol-4-yl)methyl-d)amino)-4-((2,2-dimethylpropyl-1,1-d2)amino)quinoline-3-carbonitrile] | 2 | 55 | –
[2H][C@](Nc1cc(C#N)c2ncc(C#N)c(NCC(C)(C)C)c2c1)(c1cccc(C#N)c1)c1cn(C2CC2)nn1 [Example 240, (S)-6-(((3-cyanophenyl)(1-cyclopropyl-1H-1,2,3-triazol-4-yl)methyl-d)amino)-4-(neopentylamino)quinoline-3,8-dicarbonitrile] | 1 | 71 | –
[2H][C@](Nc1cc(Cl)c2ncc(C#N)c(NC3(C)CC3)c2c1)(c1ccc(F)cc1)c1cn(C2CC2)nn1 [Example 241, (S)-8-chloro-6-(((1-cyclopropyl-1H-1,2,3-triazol-4-yl)(4-fluorophenyl)methyl-d)amino)-4-((1-methylcyclopropyl)amino) quinoline-3-carbonitrile] | 951 | 5080 | –
[2H][C@](Nc1cc(C#N)c2ncc(C#N)c(N[C@H](CC)c3ccccc3)c2c1)(c1cccc(C#N)c1)c1cn(C2CC2)nn1 [Example 243, 6-(((S)-(3-cyanophenyl)(1-cyclopropyl-1H-1,2,3-triazol-4-yl)methyl-d)amino)-4-(((R)-1-phenylpropyl)amino)quinoline-3,8-dicarbonitrile] | 2 | 41 | –
[2H][C@](Nc1cc(Cl)c2ncc(C#N)c(N[C@@H](C)C(C)(C)C)c2c1)(c1ccc(F)cc1)c1cn(C2CC2)nn1 [Example 244, 8-chloro-6-(((S)-(1-cyclopropyl-1H-1,2,3-triazol-4-yl)(4-fluorophenyl)methyl-d)amino)-4-(((S)-3,3-dimethylbutan-2-yl)amino)quinoline-3-carbonitrile] | 576 | 5690 | –
[2H][C@](Nc1cc(Cl)c2ncc(C#N)c(NC34CC5CC(CC(C5)C3)C4)c2c1)(c1ccc(F)cc1)c1cn(C2CC2)nn1 [Example 245, 4-(((3R,5R,7R)-adamantan-1-yl)amino)-8-chloro-6-(((S)-(1-cyclopropyl-1H-1,2,3-triazol-4-yl)(4-fluorophenyl)methyl-d)amino)quinoline-3-carbonitrile] | 46 | 557 | –
[2H][C@](Nc1cc(Cl)c2ncc(C#N)c(NC3C4CC5CC(C4)CC3C5)c2c1)(c1ccc(F)cc1)c1cn(C2CC2)nn1 (stereo partly drawn) [Example 246, 4-(((1S,3S,5S,7S)-adamantan-2-yl)amino)-8-chloro-6-(((S)-(1-cyclopropyl-1H-1,2,3-triazol-4-yl)(4-fluorophenyl)methyl-d)amino)quinoline-3-carbonitrile] | 19 | 490 | –
[2H][C@](Nc1cc(Cl)c2ncc(C#N)c(N[C@H](CC#N)C(C)(C)C)c2c1)(c1ccc(F)cc1)c1cn(C2CC2)nn1 [Example 247, 8-chloro-4-(((R)-1-cyano-3,3-dimethylbutan-2-yl)amino)-6-(((S)-(1-cyclopropyl-1H-1,2,3-triazol-4-yl)(4-fluorophenyl)methyl-d)amino)quinoline-3-carbonitrile] | 28 | 635 | –
[2H][C@](Nc1cc(Cl)c2ncc(C#N)c(N[C@@H](CCC#N)c3ccccc3)c2c1)(c1ccc(F)cc1)c1cn(C2CC2)nn1 [Example 248, 8-chloro-4-(((S)-3-cyano-1-phenylpropyl)amino)-6-(((S)-(1-cyclopropyl-1H-1,2,3-triazol-4-yl)(4-fluorophenyl)methyl-d)amino)quinoline-3-carbonitrile] | 3200 | > 10000 | –
[2H][C@](Nc1cc(Cl)c2ncc(C#N)c(N[C@H](CCC#N)c3ccccc3)c2c1)(c1ccc(F)cc1)c1cn(C2CC2)nn1 [Example 249, 8-chloro-4-(((R)-3-cyano-1-phenylpropyl)amino)-6-(((S)-(1-cyclopropyl-1H-1,2,3-triazol-4-yl)(4-fluorophenyl)methyl-d)amino)quinoline-3-carbonitrile] | 1 | 21 | –
[2H][C@](Nc1cc(Cl)c2ncc(C#N)c(N[C@H](CC)c3ccccc3)c2c1)(c1cccc(C#N)c1)c1cn(C(C)(C)C)nn1 [Example 252, 6-(((S)-(1-(tert-butyl)-1H-1,2,3-triazol-4-yl)(3-cyanophenyl)methyl-d)amino)-8-chloro-4-(((R)-1-phenylpropyl)amino)quinoline-3-carbonitrile] | 5 | 80 | –
[2H][C@](Nc1cc(Cl)c2ncc(C#N)c(N[C@H](CC)c3ccccc3)c2c1)(c1ccc(F)cc1)c1cn(C(C)(C)C)nn1 [Example 253] | 16 | 214 | –
[2H][C@](Nc1cc(F)c2ncc(C#N)c(NC(CCC#N)c3ccccc3)c2c1)(c1cccc(C#N)c1)c1cn(C2CC2)nn1 (stereo partly drawn) [Example 254, 4-((3-cyano-1-phenylpropyl)amino)-6-(((S)-(3-cyanophenyl) (1-cyclopropyl-1H-1,2,3-triazo1-4-yl)methyl-d)amino)-8-fluoroquinoline-3-carbonitrile] | 3 | 42 | –
[2H][C@](Nc1cc(F)c2ncc(C#N)c(NC(CCC#N)c3ccccc3)c2c1)(c1ccc(F)cc1)c1cn(C2CC2)nn1 (stereo partly drawn) [Example 255, 4-((3-cyano-1-phenylpropyl)amino)-6-(((S)-(1-cyclopropyl-1H-1,2,3-triazol-4-yl)(4-fluorophenyl)methyl-d)amino)-8-fluoroquinoline-3-carbonitrile] | 5 | 62 | –
[2H][C@](Nc1cc(F)c2ncc(C#N)c(NCC(C)(C)C)c2c1)(c1cccc(C#N)c1)c1cn(C2CC2)nn1 [Example 256, (S)-6-(((3-cyanophenyl)(1-cyclopropyl-1H-1,2,3-triazol-4-yl)methyl-d)amino)-8-fluoro-4-(neopentylamino)quinoline-3-carbonitrile] | 3 | 121 | –
[2H][C@](Nc1cc(F)c2ncc(C#N)c(N[C@H](CC)c3ccccc3)c2c1)(c1cccc(C#N)c1)c1cn(C2CC2)nn1 [Example 257, 6-(((S)-(3-cyanophenyl)(1-cyclopropyl-1H-1,2,3-triazol-4-yl)methyl-d)amino)-8-fluoro-4-(((R)-1-phenylpropyl)amino)quinoline-3-carbonitrile] | 3 | 93 | –
